Experimental data reported in patent publication US20240174690A1, “ANNULATED 2-AMINO-3-CYANO THIOPHENES AND DERIVATIVES FOR THE TREATMENT OF CANCER” (BOEHRINGER INGELHEIM INTERNATIONAL GMBH, priority 2021, published 2024).

Legend:
KRAS (G12C)::SOS1 = KRAS (G12C)::SOS1 (Homo sapiens (Human), UniProt P01116, C118S/C51S/C80L/G12C); assay: KRAS::SOS1 AlphaScreen binding assay, KRAS G12C
Procedure, shortened: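 Compounds (up to 100 μM, eleven fivefold dilutions in duplicate) were incubated 30 min with KRAS 1-169 (10 nM, or 7.5 nM for G12C), GST-SOS1 564-1049 (5 nM for G12D/G12C, 10 nM for others) and 10 μM GDP in PBS buffer with BSA and Tween. Donor/acceptor beads were then added for 60 min at room temperature, and IC50 came from a 4-parameter fit of the AlphaScreen signal.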

[1] = Plasma protein binding assay (PPB), equilibrium dialysis, 10% FCS in PBS; format: in vitro ADME; details: for fraction unbound: bovine, read-out: PPB 10% FCS (% fu)
Procedure, shortened: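 Equilibrium dialysis (5-10 kg/mol cut-off membrane) of 1-10 μmol/L test compound in 10% FCS/PBS against PBS with or without dextran, 3-5 h at 37° C. Compound in each chamber quantified by LC-MS after protein precipitation; fu calculated from Cserum and Cbuffer.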

SAS cells = assay: SAS CTG proliferation assay (120 h) (HNSCC, wt amplified); format: cell-based
Procedure, shortened: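 SAS cells plated at 300 per well in DMEM:F12 with 10% FCS and left overnight, then given compounds acoustically. After 120 h exposure, viability read by CellTiter-Glo as percent of DMSO control. IC50 from four-parameter non-linear regression.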

Chain of KRAS (G12C)::SOS1 (P01116 other isoform, or with tags, fused parts or gaps G12C/C51S/C80L/C118S): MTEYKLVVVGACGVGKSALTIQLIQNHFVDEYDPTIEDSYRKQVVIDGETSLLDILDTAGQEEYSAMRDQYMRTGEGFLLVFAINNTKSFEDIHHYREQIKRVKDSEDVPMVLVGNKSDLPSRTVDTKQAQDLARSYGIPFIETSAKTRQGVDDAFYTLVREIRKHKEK

| IC50 (KRAS (G12C)::SOS1) | fraction unbound [1] | SMILES | IC50 (SAS cells) | PPB 10% FCS (% fu) ([1]; fraction unbound) |
| --- | --- | --- | --- | --- |
| 2 nM | 0.53 | C[C@H](Oc1cc(Cl)nc(-c2onc3c2CCC[C@@]32CCCc3sc(N)c(C#N)c32)n1)[C@@H]1CCCN1C [I-1] | 2880 nM |  |
| 45 nM | 0.69 | C[C@H](Oc1nc(-c2onc3c2CCC[C@@]32CCCc3sc(N)c(C#N)c32)cc(N2CCNC3(CC3)C2)n1)[C@@H]1CCCN1C [I-2] |  |  |
| 3 nM | 0.68 | C[C@H](Oc1cc(N2CCNC3(CCC3)C2)nc(-c2onc3c2CCC[C@@]32CCCc3sc(N)c(C#N)c32)n1)[C@@H]1CCCN1C [I-3] | 4890 nM |  |
| 2 nM |  | C[C@H](Oc1cc(N2CCNC3(COC3)C2)nc(-c2onc3c2CCC[C@@]32CCCc3sc(N)c(C#N)c32)n1)[C@@H]1CCCN1C [I-4] | 395 nM |  |
| 2 nM | 0.58 | C[C@H](Oc1cc(-n2ccnc2)nc(-c2onc3c2CCC[C@@]32CCCc3sc(N)c(C#N)c32)n1)[C@@H]1CCCN1C [I-20] | 35 nM |  |
| 2 nM | 0.38 | C[C@H](Oc1cc([C@@H]2CCOC2)nc(-c2onc3c2CCC[C@@]32CCCc3sc(N)c(C#N)c32)n1)[C@@H]1CCCN1C [I-22] | 33 nM |  |
| 3 nM | 0.2 | CO[C@@H]1C[C@@H]([C@H](C)Oc2cc(-c3ccn(C)n3)nc(-c3onc4c3CCC[C@@]43CCCc4sc(N)c(C#N)c43)n2)N(C)C1 [I-23] | 24 nM |  |
| 2 nM | 0.19 | Cc1nc(-c2cc(O[C@@H](C)[C@@H]3CCCN3C)nc(-c3onc4c3CCC[C@@]43CCCc4sc(N)c(C#N)c43)n2)cs1 [I-24] | 77 nM |  |
| 2 nM | 0.35 | C[C@H](Oc1cc(-c2ccc(N)nc2)nc(-c2onc3c2CCC[C@@]32CCCc3sc(N)c(C#N)c32)n1)[C@@H]1CCCN1C [I-25] | 285 nM |  |
| 2 nM | 0.23 | C[C@H](Oc1cc(-c2ccn(CC(C)(C)O)n2)nc(-c2onc3c2CCC[C@@]32CCCc3sc(N)c(C#N)c32)n1)[C@@H]1CCCN1C [I-26] | 89 nM |  |
| 2 nM | 0.21 | C[C@H](Oc1cc(-c2cnsc2)nc(-c2onc3c2CCC[C@@]32CCCc3sc(N)c(C#N)c32)n1)[C@@H]1CCCN1C [I-27] | 109 nM |  |
| 3 nM | 0.3 | Cc1ccc(-c2cc(O[C@@H](C)[C@@H]3CCCN3C)nc(-c3onc4c3CCC[C@@]43CCCc4sc(N)c(C#N)c43)n2)cn1 [I-28] | 934 nM |  |
| 3 nM | 0.54 | C[C@H](Oc1cc(-n2nccn2)nc(-c2onc3c2CCC[C@@]32CCCc3sc(N)c(C#N)c32)n1)[C@@H]1CCCN1C [I-29] | 97 nM |  |
| 88 nM | 0.51 | C[C@H](Oc1nc(-c2onc3c2CCC[C@@]32CCCc3sc(N)c(C#N)c32)cc(N2CCN(C)C3(CC3)C2)n1)[C@@H]1CCCN1C [I-40] |  |  |
| 6 nM |  | C[C@H](Oc1cc(N2CCN(C)C3(CC3)C2)nc(-c2onc3c2CCC[C@@]32CCCc3sc(N)c(C#N)c32)n1)[C@@H]1CCCN1C [I-41] | 4190 nM |  |
| 606 nM |  | C[C@H]1CN(C)CCCN1c1nc(-c2onc3c2CCC[C@@]32CCCc3sc(N)c(C#N)c32)cc(N2CCN(C)C3(CC3)C2)n1 [I-42] |  |  |
| 2 nM |  | C[C@H](Oc1cc(-n2ccc(C(=O)N[C@H]3CCOC3)n2)nc(-c2onc3c2CCC[C@@]32CCCc3sc(N)c(C#N)c32)n1)[C@@H]1CCCN1C [I-57] |  |  |
| 37 nM |  | C[C@H](Oc1nc(-c2noc3c2CCC[C@@]32CCCc3sc(N)c(C#N)c32)cc(N2C[C@H](C)N[C@@H](C)C2)n1)[C@@H]1CCCN1C [II-46] | 399 nM |  |
|  | 0.06 | C[C@H](Oc1cc(-n2ccsc2=O)nc(-c2noc3c2CCC[C@@]32CCCc3sc(N)c(C#N)c32)n1)[C@@H]1CCCN1C [II-135] | 69 nM |  |

| SMILES | IC50 (KRAS (G12C)::SOS1) | fraction unbound [1] | IC50 (SAS cells) | PPB 10% FCS (% fu) ([1]; fraction unbound) |
| --- | --- | --- | --- | --- |
| C[C@H](Oc1cc(-c2ccn(C)n2)nc(-c2onc3c2CCC[C@@]32CCCc3sc(N)c(C#N)c32)n1)[C@@H]1CCCN1C [I-21] | 2 nM |  | 40 nM | 83 % fu |
